Experimental data taken from PubChem BioAssay AID330 (DTP/NCI, 2004).
“And” between values parts separate entries of the source, which are not always exact repeats. Equal values may be shown once. Inconclusive results and toxic doses are left out.

Test system: P388 leukemia ip, CD2F1 mice, survival T/C
Test: NCI In Vivo Anticancer Drug Screen. Data for tumor model P388 Leukemia (intraperitoneal) in CD2F1 (CDF1) mice
Settings: endpoint: median survival time, higher = longer survival
How it was run: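 Mice carrying the transplanted tumor received test compound or vehicle. Survival was recorded in each group, and the value is the treated-group measurement divided by that of the vehicle-treated control group.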

[1] = dose: 50.0 mg/kg/injection, schedule: Q01DX005 (ip), vehicle: Klucel (hydroxypropylcellulose) (HPC)
[2] = dose: 25.0 mg/kg/injection, schedule: Q01DX009 (ip), vehicle: saline with Tween-80
[3] = dose: 25.0 mg/kg/injection, schedule: Q01DX009 (ip), vehicle: saline
[4] = dose: 50.0 mg/kg/injection, schedule: Q01DX009 (ip), vehicle: saline with Tween-80
[5] = dose: 50.0 mg/kg/injection, schedule: Q01DX009 (ip), vehicle: saline
[6] = dose: 100.0 mg/kg/injection, schedule: Q01DX005 (ip), vehicle: Klucel (hydroxypropylcellulose) (HPC)
[7] = dose: 200.0 mg/kg/injection, schedule: Q01DX005 (ip), vehicle: Klucel (hydroxypropylcellulose) (HPC)
[8] = dose: 20.0 mg/kg/injection, schedule: Q01DX009 (ip), vehicle: saline with Tween-80
[9] = dose: 40.0 mg/kg/injection, schedule: Q01DX009 (ip), vehicle: saline with Tween-80
[10] = dose: 50.0 mg/kg/injection, schedule: Q01DX009 (ip), vehicle: Klucel (hydroxypropylcellulose) (HPC)
[11] = dose: 100.0 mg/kg/injection, schedule: Q01DX009 (ip), vehicle: Klucel (hydroxypropylcellulose) (HPC)
[12] = dose: 200.0 mg/kg/injection, schedule: Q01DX009 (ip), vehicle: Klucel (hydroxypropylcellulose) (HPC)

Structure (SMILES): CC(C)CCC[C@@H](C)[C@H]1CC[C@H]2[C@@H]3CC[C@H]4C[C@H](N)CC[C@]4(C)[C@H]3CC[C@]12C
- T/C (dose: 12.5 mg/kg/injection, schedule: Q01DX005 (ip), vehicle: Klucel (hydroxypropylcellulose) (HPC)): 100 % of control
- T/C (dose: 25.0 mg/kg/injection, schedule: Q01DX005 (ip), vehicle: Klucel (hydroxypropylcellulose) (HPC)): 93 % of control
- T/C [1]: 112 % of control and 97 % of control

Structure (SMILES): C=C(C)C(=O)Nc1ccc(NC(C)C)cc1
- T/C (dose: 12.5 mg/kg/injection, schedule: Q01DX009 (ip), vehicle: saline with Tween-80): 115 % of control
- T/C (dose: 12.5 mg/kg/injection, schedule: Q01DX009 (ip), vehicle: saline): 105 % of control
- T/C [2]: 108 % of control
- T/C [3]: 97 % of control
- T/C [4]: 93 % of control and 96 % of control
- T/C [5]: 90 % of control
- T/C (dose: 100.0 mg/kg/injection, schedule: Q01DX009 (ip), vehicle: saline): 102 % of control

Structure (SMILES): COC(=O)CCC1=C(C)c2cc3[nH]c(cc4[nH]c(cc5nc(cc1n2)C(CCC(=O)OC)=C5C)c(C1CC1C(=O)OC)c4C)c(C1CC1C(=O)OC)c3C (stereo not given)
- T/C [1]: 104 % of control
- T/C [6]: 104 % of control
- T/C [7]: 109 % of control

Structure (SMILES): O=C(Nc1ccc2oc3ccc(Cl)cc3c(=O)c2c1)c1ccc(Cl)cc1Cl
- T/C [1]: 97 % of control
- T/C [6]: 96 % of control
- T/C [7]: 96 % of control

Structure (SMILES): CC([NH-])C[NH-].[I][Pt+2][I] (stereo not given)
- T/C (dose: 100.0 mg/kg/injection, schedule: Q04DX002 (ip), vehicle: saline with Tween-80): 154 % of control and 151 % of control

Structure (SMILES): O=c1ccc(=O)c2c(=O)c3cc4[nH]c5ccccc5[nH]c4cc3c(=O)c12
- T/C [2]: 94 % of control
- T/C [4]: 92 % of control
- T/C (dose: 100.0 mg/kg/injection, schedule: Q01DX009 (ip), vehicle: saline with Tween-80): 88 % of control

Structure (SMILES): CCCCCCCCCCCCCCCCCC[N+](C)(C)c1nc(Cl)nc(Cl)n1
- T/C [3]: 100 % of control
- T/C [5]: 91 % of control

Structure (SMILES): N=c1c2c(ncn1CCc1ccccc1)CCN(Cc1ccccc1)C2
- T/C [8]: 91 % of control
- T/C [9]: 94 % of control

Structure (SMILES): C[N+]1(C)[B]C[N+](C)(C)[B-]1
- T/C [10]: 92 % of control
- T/C [11]: 105 % of control
- T/C [12]: 103 % of control

Structure (SMILES): CC1=C(C)C(=O)OC(C(C)(O)C2(O)CC=C3C4CC(O)C5(O)C(O)C=CC(=O)C5(C)C4CCC32C)C1 (stereo not given)
- T/C (dose: 7.75 mg/kg/injection, schedule: Q01DX005 (ip), vehicle: Klucel (hydroxypropylcellulose) (HPC)): 105 % of control
- T/C (dose: 15.5 mg/kg/injection, schedule: Q01DX005 (ip), vehicle: Klucel (hydroxypropylcellulose) (HPC)): 105 % of control
- T/C (dose: 31.0 mg/kg/injection, schedule: Q01DX005 (ip), vehicle: Klucel (hydroxypropylcellulose) (HPC)): 106 % of control

Structure (SMILES): CC(C)(C)c1cc(CCc2nc(CCc3cc(C(C)(C)C)c(O)c(C(C)(C)C)c3)nc(CCc3cc(C(C)(C)C)c(O)c(C(C)(C)C)c3)n2)cc(C(C)(C)C)c1O
- T/C [10]: 92 % of control
- T/C [11]: 88 % of control
- T/C [12]: 93 % of control

Structure (SMILES): O=c1c2ccccc2cnn1CO
- T/C (dose: 100.0 mg/kg/injection, schedule: Q04DX003 (ip), vehicle: saline): 114 % of control
- T/C (dose: 200.0 mg/kg/injection, schedule: Q04DX003 (ip), vehicle: saline): 119 % of control

Structure (SMILES): O=[N+]([O-])c1ccc(/C=C\S(=O)(=O)OCCCl)cc1
- T/C [1]: 100 % of control

Structure (SMILES): O=C1C(=O)c2ccccc2C(O)=C1CCCc1ccc(OCc2ccccc2)cc1
- T/C (dose: 5.0 mg/kg/injection, schedule: Q01DX009 (ip), vehicle: saline with Tween-80): 107 % of control
- T/C (dose: 10.0 mg/kg/injection, schedule: Q01DX009 (ip), vehicle: saline with Tween-80): 117 % of control
- T/C [8]: 108 % of control
- T/C [9]: 105 % of control
